Test results from patent US20120129781A1, “COMPOSITION COMPRISING ALPHA-LIPOIC ACID AND CARNOSINE FOR TREATING THE PHANTOM LIMB SYNDROME” (DIFASS INTERNATIONAL S.R.L., priority 2009, published 2012).

Assays:
phantom limb pain = settings: literature reports (Smith et al. 2005; Bergmans et al. 2002); cited from earlier work
phantom limb syndrome = assay: Two-month daily oral treatment of lower-limb amputee patients affected by phantom limb syndrome (ASIS, VAS, McGill Pain Questionnaire, QoL at t0, 30 and 60 days); assay type: in vivo; settings: lower-limb amputees, daily oral uptake for two months, evaluated at t0, 30 and 60 days
Text: In order not to negatively influence the test, it was decided not to include the following in such groups: diabetic patients (in order to avoid interferences with the symptoms of diabetic neuropathy and with the drugs used by the diabetic patient), subjects with psychiatric pathologies also at a compensation stage, subjects with serious cognitive deficits, subjects affected by active hepatic and/or renal pathologies, subjects with organ pathologies and/or other serious comorbidities.
Group A (reference) was subdivided into two uniform groups A1 and A2; group A1 was subjected to a conventional treatment, orally taking for two months a daily dosage amount of the neuromodulator Gabapentin, a known anti-epileptic drug with indications in the treatment of neuropathic pain, as described in US patent application publication No. US 2006/159743. Group A2 was subjected to the same treatment, substituting the neuromodulator Gabapentin with the analogous neuromodulator Pregabalin.
Groups B and C were subjected, during the same two-month period, to a daily uptake of the composition 1 and, respectively, 2 of the present invention, in the same daily dosage amount of 1,200 mg.
This text is aimed at investigating how an amputee perceives their own body image. It is constituted by 20 points; the subjects are asked to indicate their answer by using a scale from 1 (never) to 5 (always). […]

| SMILES | effect on phantom limb pain (literature) (phantom limb pain) | phantom limb pain and stump pain (VAS and McGill Pain Questionnaire) (phantom limb syndrome) | phantom limb sensation (sensation of possession of the missing limb, ASIS Amputee Body Image Scale) (phantom limb syndrome) |
| --- | --- | --- | --- |
| CCC(=O)C(CC(C)N(C)C)(c1ccccc1)c1ccccc1 (stereo not drawn) [methadone] | effective reduction of the phantom limb pain |  |  |
| CC(C)C[C@H](CN)CC(=O)O [pregabalin] |  | only experienced a certain decrease of the pain | did not receive any benefit |
